According to ChEMBL document CHEMBL5584244, “Discovery of novel pyrrolo[2,1-c][1,4]benzodiazepine-3,11-dione (PBD) derivatives as selective HDAC6 inhibitors for the efficient treatment of idiopathic pulmonary fibrosis (IPF) in vitro and in vivo” (Eur J Med Chem, 2024):
Calls of active or inactive are those of the source. The calls are words filed in the database; no cut-off is given here.

Tests used:
[1] = biological target: T1, Protein deacetylase HDAC6 (Homo sapiens, UniProt Q9UBN7); assay: Inhibition of recombinant human full length HDAC6 using Boc-Lys (Ac)-AMC as substrate incubated for 120 mins by fluorescence analysis
T1 sequence (Q9UBN7 whole entry): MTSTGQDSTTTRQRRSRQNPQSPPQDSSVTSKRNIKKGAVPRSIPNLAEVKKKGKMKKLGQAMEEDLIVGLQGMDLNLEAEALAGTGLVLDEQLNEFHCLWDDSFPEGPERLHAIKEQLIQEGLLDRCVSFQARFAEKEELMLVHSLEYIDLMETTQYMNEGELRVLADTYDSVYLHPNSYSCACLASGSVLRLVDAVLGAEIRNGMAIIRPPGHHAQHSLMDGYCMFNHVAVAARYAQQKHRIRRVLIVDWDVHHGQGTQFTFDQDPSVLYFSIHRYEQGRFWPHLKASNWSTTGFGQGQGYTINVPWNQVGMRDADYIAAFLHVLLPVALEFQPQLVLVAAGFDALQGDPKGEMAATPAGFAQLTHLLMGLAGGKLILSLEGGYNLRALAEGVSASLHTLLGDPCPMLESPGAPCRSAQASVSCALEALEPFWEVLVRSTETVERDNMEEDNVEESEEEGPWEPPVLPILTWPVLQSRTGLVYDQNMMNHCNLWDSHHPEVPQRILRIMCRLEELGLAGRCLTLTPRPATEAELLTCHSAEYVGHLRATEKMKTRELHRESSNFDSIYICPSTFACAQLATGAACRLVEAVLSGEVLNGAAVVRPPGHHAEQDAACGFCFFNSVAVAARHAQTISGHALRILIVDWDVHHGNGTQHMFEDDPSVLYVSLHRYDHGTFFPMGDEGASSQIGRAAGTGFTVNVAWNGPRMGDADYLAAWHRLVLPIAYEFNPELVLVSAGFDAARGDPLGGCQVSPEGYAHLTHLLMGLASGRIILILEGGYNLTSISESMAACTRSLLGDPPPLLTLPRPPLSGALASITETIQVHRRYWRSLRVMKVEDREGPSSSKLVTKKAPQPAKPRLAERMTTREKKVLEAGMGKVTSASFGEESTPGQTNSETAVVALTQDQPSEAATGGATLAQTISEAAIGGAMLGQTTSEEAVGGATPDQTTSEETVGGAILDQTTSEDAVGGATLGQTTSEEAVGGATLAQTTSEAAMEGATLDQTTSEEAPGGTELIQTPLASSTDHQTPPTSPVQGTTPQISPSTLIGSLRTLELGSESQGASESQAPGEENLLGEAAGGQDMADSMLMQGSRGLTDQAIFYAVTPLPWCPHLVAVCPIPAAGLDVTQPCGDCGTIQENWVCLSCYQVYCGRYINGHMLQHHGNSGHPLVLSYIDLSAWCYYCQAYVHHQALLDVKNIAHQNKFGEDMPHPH

Mus musculus [2] = assay: Anti-pulmonary fibrosis activity in bleomycin-induced C57BL/6 mouse model of pulmonary fibrosis assessed as decrease in structural damage in lung at 100 mg/kg, ip for 3 weeks by Masson trichrome staining based microscopic analysis; format: functional, organism-based
Mus musculus [3] = assay: Anti-pulmonary fibrosis activity in bleomycin-induced C57BL/6 mouse model of pulmonary fibrosis assessed as decrease in collapse of the alveolar cavity in lung at 100 mg/kg, ip for 3 weeks by H and E staining based fluorescence microscopic analysis; format: functional, organism-based
Mus musculus [4] = assay: Anti-pulmonary fibrosis activity in bleomycin-induced C57BL/6 mouse model of pulmonary fibrosis assessed as increase in body weight at 100 mg/kg, ip for 3 weeks; format: functional, organism-based
Mus musculus [5] = assay: Anti-pulmonary fibrosis activity in bleomycin-induced C57BL/6 mouse model of pulmonary fibrosis assessed as decrease in inflammatory cell infiltration in lung at 100 mg/kg, ip for 3 weeks by H and E staining based fluorescence microscopic analysis; format: functional, organism-based
Mus musculus [6] = assay: Anti-pulmonary fibrosis activity in bleomycin-induced C57BL/6 mouse model of pulmonary fibrosis assessed as decrease in thickening of the alveolar wall in lung at 100 mg/kg, ip for 3 weeks by Masson trichrome staining based microscopic analysis; format: functional, organism-based
Mus musculus [7] = assay: Anti-pulmonary fibrosis activity in bleomycin-induced C57BL/6 mouse model of pulmonary fibrosis assessed as decrease in thickening of the alveolar wall in lung at 100 mg/kg, ip for 3 weeks by H and E staining based fluorescence microscopic analysis; format: functional, organism-based
Mus musculus [8] = assay: Anti-pulmonary fibrosis activity in bleomycin-induced C57BL/6 mouse model of pulmonary fibrosis assessed as decrease structural damage in lung at 100 mg/kg, ip for 3 weeks by H and E staining based fluorescence microscopic analysis; format: functional, organism-based
Mus musculus [9] = assay: Anti-pulmonary fibrosis activity in bleomycin-induced C57BL/6 mouse model of pulmonary fibrosis assessed as decrease in fibrosis scars in lung at 100 mg/kg, ip for 3 weeks by H and E staining based fluorescence microscopic analysis; format: functional, organism-based
Mus musculus [10] = assay: Anti-pulmonary fibrosis activity in bleomycin-induced C57BL/6 mouse model of pulmonary fibrosis assessed as decrease in disturbance of alveolar structure in lung at 100 mg/kg, ip for 3 weeks by H and E staining based fluorescence microscopic analysis; format: functional, organism-based
Mus musculus [11] = assay: Anti-pulmonary fibrosis activity in bleomycin-induced C57BL/6 mouse model of pulmonary fibrosis assessed as decrease in collagen level in lung at 100 mg/kg, ip for 3 weeks by Masson trichrome staining based microscopic analysis; format: functional, organism-based
Mus musculus [12] = assay: Anti-pulmonary fibrosis activity in bleomycin-induced C57BL/6 mouse model of pulmonary fibrosis assessed as decrease in collapse of the alveolar cavity in lung at 100 mg/kg, ip for 3 weeks by Masson trichrome staining based microscopic analysis; format: functional, organism-based

Work on `COc1cc2c(cc1O)CN1C(=O)CC[C@H]1C(=O)N2CCCCCCCC(=O)NO` yielded an IC50 [1] of 176 nM.
`O=C(NO)c1cccc(CN2C(=O)[C@@H]3CCCN3Cc3ccccc32)c1` gave an IC50 [1] greater than 300 nM.
`O=C(NO)c1ccccc1CN1C(=O)[C@@H]2CCCN2Cc2ccccc21` gave an IC50 [1] greater than 300 nM.
Work on `COc1cc2c(cc1O)CN1C(=O)CC[C@H]1C(=O)N2CCCCCCC(=O)NO` yielded an IC50 [1] of 13.5 nM.
Work on `COc1cc2c(cc1O)CN1C(=O)CC[C@H]1C(=O)N2Cc1ccccc1C(=O)NO` yielded an IC50 [1] of 279 nM.
`COc1cc2c(cc1O)CN1C(=O)CC[C@H]1C(=O)N2Cc1cccc(C(=O)NO)c1` showed an IC50 [1] of 296 nM.
In the case of `O=C(CCCCCCN1C(=O)[C@@H]2CCCN2Cc2ccccc21)NO`, the IC50 [1] is reported as 294 nM.
In the case of `Cc1ccc(=O)n(-c2ccccc2)c1`, the Activity (Mus musculus [2]) is reported as “inactive”, the Activity (Mus musculus [3]) is reported as “Active” and the Activity (Mus musculus [4]) is reported as “Active”. The Activity (Mus musculus [5]) was “Active”, the Activity (Mus musculus [6]) was “inactive” and the Activity (Mus musculus [7]) was “Active”. For the same compound, the Activity (Mus musculus [8]) was “Active”, the Activity (Mus musculus [9]) was “Active” and the Activity (Mus musculus [10]) was “Active”. For the same compound, the Activity (Mus musculus [11]) was “Active” and the Activity (Mus musculus [12]) was “inactive”.
In the case of `COc1cc2c(cc1OCc1ccccc1)CN1C(=O)CC[C@H]1C(=O)N2CCCCCCCC(=O)NO`, the IC50 [1] is reported as 275 nM.
`O=C(Cc1ccc(CN2C(=O)[C@@H]3CCCN3Cc3ccccc32)cc1)NO` showed an IC50 [1] of 288 nM.
